Test results published in PubChem BioAssay AID1745844 (Carcinogenic Potency Database (CPDB), 2022).
Calls of active or inactive are those of the source. How the calls were made is not given here.

System: rodent lifetime carcinogenesis bioassay, tumor incidence TD50
Assay: chronic cancer bioassays in animals – CPDB, compiled studies (AID 1745844)
Settings: rat

SMILES: CCCCN(N=O)C(N)=O
- TD50 (strain F344/DuCrj, females, in drinking water, site: all sites, lesion: several types, types named in the paper, dosed 50 weeks, study length 50 weeks): 24.7 mg/kg/day
- TD50 (strain F344/DuCrj, females, in drinking water, site: digestive tract, lesion: several types, types named in the paper, dosed 50 weeks, study length 50 weeks): 1.3 mg/kg/day
- TD50 (strain F344/DuCrj, females, in drinking water, site: ear duct, lesion: several types, types named in the paper, dosed 50 weeks, study length 50 weeks): 11.6 mg/kg/day
- TD50 (strain F344/DuCrj, females, in drinking water, site: ear duct, lesion: squamous-cell carcinoma, sebaceous, dosed 50 weeks, study length 50 weeks): 19.4 mg/kg/day
- TD50 (strain F344/DuCrj, females, in drinking water, site: esophagus, lesion: papilloma, dosed 50 weeks, study length 50 weeks): 6.58 mg/kg/day
- TD50 (strain F344/DuCrj, females, in drinking water, site: esophagus, lesion: several types, types named in the paper, dosed 50 weeks, study length 50 weeks): 3.21 mg/kg/day
- TD50 (strain F344/DuCrj, females, in drinking water, site: esophagus, lesion: squamous-cell carcinoma, dosed 50 weeks, study length 50 weeks): 8.05 mg/kg/day
- TD50 (strain F344/DuCrj, females, in drinking water, site: forestomach, lesion: papilloma, dosed 50 weeks, study length 50 weeks): 4 mg/kg/day
- TD50 (strain F344/DuCrj, females, in drinking water, site: forestomach, lesion: several types, types named in the paper, dosed 50 weeks, study length 50 weeks): 2.43 mg/kg/day
- TD50 (strain F344/DuCrj, females, in drinking water, site: forestomach, lesion: squamous-cell carcinoma, dosed 50 weeks, study length 50 weeks): 10.2 mg/kg/day
- TD50 (strain F344/DuCrj, females, in drinking water, site: pharynx, lesion: several types, types named in the paper, dosed 50 weeks, study length 50 weeks): 8.05 mg/kg/day
- TD50 (strain F344/DuCrj, females, in drinking water, site: pharynx, lesion: squamous-cell carcinoma, dosed 50 weeks, study length 50 weeks): 10.2 mg/kg/day
- TD50 (strain F344/DuCrj, females, in drinking water, site: tongue, lesion: papilloma, dosed 50 weeks, study length 50 weeks): 13.5 mg/kg/day
- TD50 (strain F344/DuCrj, females, in drinking water, site: tongue, lesion: several types, types named in the paper, dosed 50 weeks, study length 50 weeks): 10.2 mg/kg/day
- TD50 (strain F344/DuCrj, females, in drinking water, site: vagina, lesion: papilloma, dosed 50 weeks, study length 50 weeks): 6 mg/kg/day
- TD50 (strain F344/DuCrj, females, in drinking water, site: vagina, lesion: several types, types named in the paper, dosed 50 weeks, study length 50 weeks): 5.05 mg/kg/day
- TD50 (strain F344/DuCrj, males, in drinking water, site: all sites, lesion: several types, types named in the paper, dosed 50 weeks, study length 50 weeks): 10.2 mg/kg/day
- TD50 (strain F344/DuCrj, males, in drinking water, site: digestive tract, lesion: several types, types named in the paper, dosed 50 weeks, study length 50 weeks): 0.91 mg/kg/day
- TD50 (strain F344/DuCrj, males, in drinking water, site: duodenum, lesion: several types, types named in the paper, dosed 50 weeks, study length 50 weeks): 11.8 mg/kg/day
- TD50 (strain F344/DuCrj, males, in drinking water, site: ear duct, lesion: several types, types named in the paper, dosed 50 weeks, study length 50 weeks): 11.8 mg/kg/day
- TD50 (strain F344/DuCrj, males, in drinking water, site: esophagus, lesion: papilloma, dosed 50 weeks, study length 50 weeks): 4.08 mg/kg/day
- TD50 (strain F344/DuCrj, males, in drinking water, site: esophagus, lesion: several types, types named in the paper, dosed 50 weeks, study length 50 weeks): 3.02 mg/kg/day
- TD50 (strain F344/DuCrj, males, in drinking water, site: esophagus, lesion: squamous-cell carcinoma, dosed 50 weeks, study length 50 weeks): 17 mg/kg/day
- TD50 (strain F344/DuCrj, males, in drinking water, site: forestomach, lesion: papilloma, dosed 50 weeks, study length 50 weeks): 3.25 mg/kg/day
- TD50 (strain F344/DuCrj, males, in drinking water, site: forestomach, lesion: several types, types named in the paper, dosed 50 weeks, study length 50 weeks): 2.62 mg/kg/day
- TD50 (strain F344/DuCrj, males, in drinking water, site: palate, soft, lesion: several types, types named in the paper, dosed 50 weeks, study length 50 weeks): 11.8 mg/kg/day
- TD50 (strain F344/DuCrj, males, in drinking water, site: palate, soft, lesion: squamous-cell carcinoma, dosed 50 weeks, study length 50 weeks): 17 mg/kg/day
- TD50 (strain Fischer 344, females, by gavage, site: colon, lesion: one or several types, types not named, dosed 40 weeks, study length 104 weeks): 2.31 mg/kg/day
- TD50 (strain Fischer 344, females, by gavage, site: forestomach, lesion: one or several types, types not named, dosed 40 weeks, study length 104 weeks): 0.267 mg/kg/day
- TD50 (strain Fischer 344, females, by gavage, site: lung, lesion: several types, types named in the paper, dosed 40 weeks, study length 104 weeks): 0.277 mg/kg/day
- TD50 (strain Fischer 344, females, by gavage, site: mammary gland, lesion: adenocarcinoma, dosed 40 weeks, study length 104 weeks): 0.758 mg/kg/day
- TD50 (strain Fischer 344, females, by gavage, site: uterus, lesion: several types, types named in the paper, dosed 40 weeks, study length 104 weeks): 0.551 mg/kg/day
- TD50 (strain Fischer 344, males, by gavage, site: colon, lesion: one or several types, types not named, dosed 40 weeks, study length 104 weeks): 1.61 mg/kg/day
- TD50 (strain Fischer 344, males, by gavage, site: forestomach, lesion: one or several types, types not named, dosed 40 weeks, study length 104 weeks): 0.259 mg/kg/day
- TD50 (strain Fischer 344, males, by gavage, site: lung, lesion: several types, types named in the paper, dosed 40 weeks, study length 104 weeks): 0.187 mg/kg/day
- TD50 (strain MRC-Wistar, females, in drinking water, site: all sites, lesion: myelocytic leukemia, dosed 39 weeks, study length 85 weeks): 3.27 mg/kg/day
- TD50 (strain MRC-Wistar, females, in drinking water, site: any site (literature study), lesion: one or several types, types not named, dosed 39 weeks, study length 85 weeks): 1.02 mg/kg/day
- TD50 (strain MRC-Wistar, females, in drinking water, site: liver, lesion: one or several types, types not named, dosed 39 weeks, study length 85 weeks): 6.63 mg/kg/day
- TD50 (strain MRC-Wistar, females, in drinking water, site: mammary gland, lesion: one or several types, types not named, dosed 39 weeks, study length 85 weeks): 6.63 mg/kg/day (inactive)
- TD50 (strain MRC-Wistar, males, in drinking water, site: all sites, lesion: myelocytic leukemia, dosed 39 weeks, study length 85 weeks): 2.86 mg/kg/day
- TD50 (strain MRC-Wistar, males, in drinking water, site: any site (literature study), lesion: one or several types, types not named, dosed 39 weeks, study length 85 weeks): 1.64 mg/kg/day
- TD50 (strain MRC-Wistar, males, in drinking water, site: liver, lesion: one or several types, types not named, dosed 39 weeks, study length 85 weeks): 26.1 mg/kg/day

SMILES: CC(=O)CN(CC(C)=O)N=O
- TD50 (strain Fischer 344, females, by gavage, site: liver, lesion: hepatocellular carcinoma, dosed 30 weeks, study length 95 weeks): 0.684 mg/kg/day
- TD50 (strain Fischer 344, females, in drinking water, site: liver, lesion: hemangiosarcoma, dosed 50 weeks, study length 75 weeks): 0.892 mg/kg/day
- TD50 (strain Fischer 344, females, in drinking water, site: liver, lesion: hepatocellular carcinoma, dosed 50 weeks, study length 75 weeks): 0.582 mg/kg/day
- TD50 (strain Fischer 344, females, in drinking water, site: liver, lesion: several types, types named in the paper, dosed 50 weeks, study length 75 weeks): 0.232 mg/kg/day
- TD50 (strain Fischer 344, females, in drinking water, site: lung, lesion: several types, types named in the paper, dosed 50 weeks, study length 75 weeks): 0.399 mg/kg/day
- TD50 (strain MRC-Wistar, males, by gavage, site: colorectum, lesion: one or several types, types not named, dosed 104 weeks, study length 104 weeks): 1.56 mg/kg/day
- TD50 (strain MRC-Wistar, males, by gavage, site: liver, lesion: one or several types, types not named, dosed 104 weeks, study length 104 weeks): 1.56 mg/kg/day
- TD50 (strain MRC-Wistar, males, by gavage, site: lung, lesion: one or several types, types not named, dosed 104 weeks, study length 104 weeks): 1.92 mg/kg/day
- TD50 (strain MRC-Wistar, males, by gavage, site: nasal cavity, lesion: one or several types, types not named, dosed 104 weeks, study length 104 weeks): 1.56 mg/kg/day
- TD50 (strain MRC-Wistar, males, by gavage, site: prostate, lesion: carcinoma, dosed 74 weeks, study length 74 weeks): 1.53 mg/kg/day
- TD50 (strain MRC-Wistar, males, by gavage, site: prostate, lesion: squamous-cell carcinoma, keratinized, dosed 104 weeks, study length 104 weeks): 2.41 mg/kg/day
- TD50 (strain MRC-Wistar, males, by gavage, site: thyroid gland, lesion: one or several types, types not named, dosed 104 weeks, study length 104 weeks): 3.16 mg/kg/day
- TD50 (strain MRC-Wistar, males, by gavage, site: urethra, lesion: several types, types named in the paper, dosed 104 weeks, study length 104 weeks): 0.891 mg/kg/day
- TD50 (strain MRC, females, by gavage, site: any site (literature study), lesion: one or several types, types not named, dosed 73 weeks, study length 77 weeks): 0.171 mg/kg/day
- TD50 (strain MRC, females, by gavage, site: liver, lesion: several types, types named in the paper, dosed 73 weeks, study length 77 weeks): 0.283 mg/kg/day
- TD50 (strain MRC, females, by gavage, site: lung, lesion: adenoma, dosed 73 weeks, study length 77 weeks): 14 mg/kg/day
- TD50 (strain MRC, females, by gavage, site: nasal and paranasal cavity, lesion: several types, types named in the paper, dosed 73 weeks, study length 77 weeks): 14 mg/kg/day
- TD50 (strain MRC, females, by gavage, site: thyroid gland, lesion: several types, types named in the paper, dosed 73 weeks, study length 77 weeks): 1.39 mg/kg/day
- TD50 (strain MRC, males, by gavage, site: any site (literature study), lesion: one or several types, types not named, dosed 72 weeks, study length 80 weeks): 0.0995 mg/kg/day
- TD50 (strain MRC, males, by gavage, site: colon, lesion: several types, types named in the paper, dosed 72 weeks, study length 80 weeks): 1.6 mg/kg/day
- TD50 (strain MRC, males, by gavage, site: liver, lesion: several types, types named in the paper, dosed 72 weeks, study length 80 weeks): 0.989 mg/kg/day
- TD50 (strain MRC, males, by gavage, site: lung, lesion: several types, types named in the paper, dosed 72 weeks, study length 80 weeks): 1.1 mg/kg/day
- TD50 (strain MRC, males, by gavage, site: nasal and paranasal cavity, lesion: several types, types named in the paper, dosed 72 weeks, study length 80 weeks): 1.23 mg/kg/day
- TD50 (strain MRC, males, by gavage, site: prostate, lesion: squamous-cell carcinoma, dosed 72 weeks, study length 80 weeks): 2.21 mg/kg/day
- TD50 (strain MRC, males, by gavage, site: thyroid gland, lesion: several types, types named in the paper, dosed 72 weeks, study length 80 weeks): 0.968 mg/kg/day
- TD50 (strain MRC, males, by gavage, site: urethra, lesion: papilloma, dosed 72 weeks, study length 80 weeks): 0.878 mg/kg/day
